Consider one molecule from patent US20260108614A1, “IMMOBILIZED ENDOGLYCOSIDASE FUSION PROTEIN AND USE THEREOF” (GENEQUANTUM HEALTHCARE (SUZHOU) CO., LTD., priority 2022, published 2026).

Where two headings read alike, the source gives them in different places. Square brackets hold non-standard residues; d marks the D form. Peptide text beside a SMILES is read from it. * marks the point of attachment. Dolaproine = CO[C@@H]([C@@H]1CCCN1)[C@@H](C)C(=O)O; Dil = CC[C@H](C)[C@H](NC)[C@@H](CC(=O)O)OC; X1 = C[C@@H](N*)[C@@H](O)c1ccccc1; NMeV = CN[C@H](C(=O)O)C(C)C

The subject of test [1] is FaDu (human throat cancer cell). Nature of the test: Tumor cell proliferation inhibition, FaDu. It counts as cell-based. As to conditions: Table 7; TROP2-positive; "—" = undetected; read-out: Inhibitory effect on proliferation of Tumor Cells (IC50, nM), FaDu. The method, then:
(§1) 1) ErbB2/Her2-positive human breast cancer cells BT-474, ErbB2/Her2-positive human gastric cancer cells NCI-N87 and ErbB2/Her2-negative human liver cancer cells HepG2 were inoculated into a 96-well cell plate at 100 μl/well (1000 to 10000 cells), and incubated overnight in a cell incubator under the conditions of 37° C., 5% CO2, and 100% humidity.
(§2) Incubation was further performed at 37° C. for 72 to 120 h.
(§3) 3) The cell plate was removed from the 37° C. cell incubator, and equilibrated for about 30 min to room temperature. 100 μl of CellTiter Glo reagent was added into each well, a shaker shook for 2 min, followed by standing in a dark place at room temperature for 10 min, and a relative light unit (RLU) was measured with an MD M4 microplate reader.
(§4) BxPC-3, FaDu, HepG2 and other human tumor cells were selected.
(§5) TROP2-positive human tumor cells such as BxPC-3 (human pancreatic cancer cell) and FaDu (human throat cancer cell), and TROP2-negative tumor cells such as HepG2 (human liver cancer cell) were selected.

The subject of another test is TROP2-positive cells. Nature of the test: Tumor cell proliferation inhibition, TROP2-positive cells as a group. Format: cell-based, human. As to conditions: Example 19; BxPC-3 and FaDu. Here is the method: as §1, §2, §3, §4, §5
Test [2] has as its system human liver cancer cells HepG2. Nature of the test: Tumor cell proliferation inhibition (CellTiter Glo), HepG2. Particulars: "—" = undetected, read-out: Inhibitory effect on proliferation of Tumor Cells (IC50, nM), HepG2. Format: cell-based. The method, then:
as §1, §2, §3, §4, §5
(In general: ATP-based viability assays read luminescence as a measure of living cells.)

Test [3] deals with ErbB2/Her2-positive human gastric cancer cells NCI-N87. Nature of the test: Tumor cell proliferation inhibition (CellTiter Glo), NCI-N87. It counts as cell-based. Particulars: Table 3; incubation 72 to 120 h; "—" = undetected; read-out: Inhibitory effect on proliferation of Tumor Cells (IC50, nM), NCI-N87. Here is the method:
as §1, §2, §3

Test [4] concerns BxPC-3 (human pancreatic cancer cell). Nature of the test: Tumor cell proliferation inhibition, BxPC-3. Format: cell-based. As to conditions: Table 7; TROP2-positive; "—" = undetected; read-out: Inhibitory effect on proliferation of Tumor Cells (IC50, nM), BxPC-3. Here is the method: as §1, §2, §3, §4, §5
Test [5] deals with ErbB2/Her2-positive cells. Nature of the test: Tumor cell proliferation inhibition, ErbB2/Her2-positive cells as a group. It counts as cell-based, human. As to conditions: Example 9; BT-474 and NCI-N87.
Test [6] concerns ErbB2/Her2-positive human breast cancer cells BT-474. Nature of the test: Tumor cell proliferation inhibition (CellTiter Glo), BT-474. It counts as cell-based. As to conditions: Table 3; incubation 72 to 120 h; "—" = undetected; read-out: Inhibitory effect on proliferation of Tumor Cells (IC50, nM), BT-474. The method, then:
as §1, §2, §3

`CC[C@H](C)[C@@H]([C@@H](CC(=O)N1CCC[C@H]1[C@H](OC)[C@@H](C)C(=O)N[C@H](C)[C@@H](O)c1ccccc1)OC)N(C)C(=O)[C@@H](NC(=O)[C@@H](NC)C(C)C)C(C)C` [MMAE, monomethylauristatin E, reference compound] (H-[NMeV]V[Dil][Dolaproine]-X1): the IC50 was found to be 0.167 nM in test [1]; 0.567 nM in test [2] (Table 3, ErbB2/Her2-negative cells, incubation 72 to 120 h); 0.398 nM in test [2] (Table 7, TROP2-negative); 0.248 nM in test [3]; 0.388 nM in test [4]; 0.272 nM in test [6]. In the test with TROP2-positive cells, the “inhibitory effect on proliferation of the TROP2-positive cells (in words)” value is listed as “obvious inhibitory effect”. The “inhibitory effect on proliferation of the ErbB2/Her2-positive cells (in words)” value in test [5] is reported as “obvious inhibitory effect”.
